# Results as given in ChEMBL document CHEMBL1138295, “Multiple N-methylation by a designed approach enhances receptor selectivity” (J Med Chem, 2007).
# Square brackets hold non-standard residues; d marks the D form. Peptide text beside a SMILES is read from it.
# Columns and labels:
# Homo sapiens = species on record: Homo sapiens; assay: Selectivity for integrin alpha2bbeta3 receptor over integrin alphavbeta3 receptor
# Integrin alpha-5/beta-1 = Integrin alpha-5/beta-1 (Homo sapiens, UniProt P05556+P08648); assay: Binding affinity to integrin alpha-5-beta-1 receptor by solid phase binding assay; assay type: protein-complex assay
# Integrin alpha-V/beta-3 = Integrin alpha-V/beta-3 (Homo sapiens, UniProt P05106+P06756); assay: Binding affinity to integrin alpha-v-beta-3 receptor by solid phase binding assay; assay type: protein-complex assay
# [1] = Permeability across human Caco-2 cell monolayer; assay type: ADME, cell-based
# [2] = target: Integrin alpha-IIb/beta-3 (Homo sapiens, UniProt P05106+P08514); assay: Binding affinity to integrin alpha-2b-beta-3 receptor by solid phase binding assay; assay type: protein-complex assay
# Integrin alpha-IIb/beta-3, sequence (P05106 27-788 limits assumed): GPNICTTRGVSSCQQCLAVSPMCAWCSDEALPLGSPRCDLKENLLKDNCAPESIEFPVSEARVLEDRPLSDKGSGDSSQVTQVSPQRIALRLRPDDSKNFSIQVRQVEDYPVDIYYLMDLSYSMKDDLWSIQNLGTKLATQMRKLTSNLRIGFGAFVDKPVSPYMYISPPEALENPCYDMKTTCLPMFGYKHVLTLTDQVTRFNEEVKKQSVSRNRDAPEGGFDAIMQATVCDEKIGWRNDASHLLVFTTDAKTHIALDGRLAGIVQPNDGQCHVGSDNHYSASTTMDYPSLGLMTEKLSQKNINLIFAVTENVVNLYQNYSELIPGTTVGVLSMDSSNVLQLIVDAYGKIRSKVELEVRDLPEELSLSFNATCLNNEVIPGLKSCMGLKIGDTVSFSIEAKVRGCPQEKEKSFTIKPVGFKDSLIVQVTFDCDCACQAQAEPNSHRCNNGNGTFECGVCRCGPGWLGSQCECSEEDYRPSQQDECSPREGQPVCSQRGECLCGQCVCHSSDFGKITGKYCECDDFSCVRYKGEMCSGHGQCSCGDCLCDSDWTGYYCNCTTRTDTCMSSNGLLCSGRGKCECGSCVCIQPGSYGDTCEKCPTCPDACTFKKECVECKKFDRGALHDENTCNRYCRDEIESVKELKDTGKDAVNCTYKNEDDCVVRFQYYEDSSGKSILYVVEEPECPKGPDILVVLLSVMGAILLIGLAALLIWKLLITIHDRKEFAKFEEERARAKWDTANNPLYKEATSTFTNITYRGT
# Integrin alpha-IIb/beta-3, sequence (P08514 32-887 limits assumed): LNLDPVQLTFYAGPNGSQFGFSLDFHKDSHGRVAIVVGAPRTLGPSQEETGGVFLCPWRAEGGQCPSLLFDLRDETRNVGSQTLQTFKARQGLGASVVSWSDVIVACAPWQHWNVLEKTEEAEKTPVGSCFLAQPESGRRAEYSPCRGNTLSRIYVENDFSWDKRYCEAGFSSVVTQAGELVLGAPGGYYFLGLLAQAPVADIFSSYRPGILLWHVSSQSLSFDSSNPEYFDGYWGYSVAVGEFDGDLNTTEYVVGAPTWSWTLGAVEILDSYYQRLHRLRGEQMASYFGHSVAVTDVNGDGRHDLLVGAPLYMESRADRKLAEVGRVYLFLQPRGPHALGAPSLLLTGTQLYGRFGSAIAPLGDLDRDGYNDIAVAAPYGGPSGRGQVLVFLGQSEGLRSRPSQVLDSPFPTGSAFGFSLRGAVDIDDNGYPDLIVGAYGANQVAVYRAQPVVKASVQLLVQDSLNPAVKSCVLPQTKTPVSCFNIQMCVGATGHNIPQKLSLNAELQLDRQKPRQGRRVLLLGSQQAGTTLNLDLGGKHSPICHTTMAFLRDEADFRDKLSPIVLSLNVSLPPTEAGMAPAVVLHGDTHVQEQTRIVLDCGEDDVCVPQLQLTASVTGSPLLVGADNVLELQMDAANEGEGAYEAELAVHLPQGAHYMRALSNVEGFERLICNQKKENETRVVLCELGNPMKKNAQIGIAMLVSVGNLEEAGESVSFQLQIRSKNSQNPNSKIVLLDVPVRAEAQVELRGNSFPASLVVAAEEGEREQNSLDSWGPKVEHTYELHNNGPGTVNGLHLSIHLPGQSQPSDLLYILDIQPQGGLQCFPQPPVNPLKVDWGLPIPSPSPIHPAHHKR
# Integrin alpha-IIb/beta-3, sequence (P08514 891-1039 limits assumed): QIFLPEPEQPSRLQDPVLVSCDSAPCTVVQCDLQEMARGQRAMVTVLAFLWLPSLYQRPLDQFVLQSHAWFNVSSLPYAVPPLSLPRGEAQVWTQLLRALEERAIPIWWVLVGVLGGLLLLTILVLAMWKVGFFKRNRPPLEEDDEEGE
# Integrin alpha-5/beta-1, sequence (P05556 21-798 limits assumed): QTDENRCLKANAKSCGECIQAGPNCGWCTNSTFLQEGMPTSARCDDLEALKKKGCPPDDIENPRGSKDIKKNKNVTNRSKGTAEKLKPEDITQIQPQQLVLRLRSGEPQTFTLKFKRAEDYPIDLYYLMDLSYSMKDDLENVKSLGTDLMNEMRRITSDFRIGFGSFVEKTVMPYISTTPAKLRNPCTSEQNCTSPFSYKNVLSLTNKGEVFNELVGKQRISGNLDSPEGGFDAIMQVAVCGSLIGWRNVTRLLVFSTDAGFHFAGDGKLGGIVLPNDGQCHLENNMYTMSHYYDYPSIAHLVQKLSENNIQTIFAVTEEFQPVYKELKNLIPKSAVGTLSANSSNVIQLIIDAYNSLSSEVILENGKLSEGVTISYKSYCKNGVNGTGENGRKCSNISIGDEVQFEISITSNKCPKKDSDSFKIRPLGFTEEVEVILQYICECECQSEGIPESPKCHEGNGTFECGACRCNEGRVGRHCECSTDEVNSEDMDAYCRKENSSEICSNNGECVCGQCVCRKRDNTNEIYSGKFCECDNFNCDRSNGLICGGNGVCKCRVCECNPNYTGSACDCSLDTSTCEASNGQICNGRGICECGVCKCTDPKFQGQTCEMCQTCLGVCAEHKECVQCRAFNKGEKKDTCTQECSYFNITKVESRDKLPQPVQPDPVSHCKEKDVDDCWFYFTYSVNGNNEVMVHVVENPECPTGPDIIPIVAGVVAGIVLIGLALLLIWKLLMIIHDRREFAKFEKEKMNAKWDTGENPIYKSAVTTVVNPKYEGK
# Integrin alpha-5/beta-1, sequence (P08648 42-894 limits assumed): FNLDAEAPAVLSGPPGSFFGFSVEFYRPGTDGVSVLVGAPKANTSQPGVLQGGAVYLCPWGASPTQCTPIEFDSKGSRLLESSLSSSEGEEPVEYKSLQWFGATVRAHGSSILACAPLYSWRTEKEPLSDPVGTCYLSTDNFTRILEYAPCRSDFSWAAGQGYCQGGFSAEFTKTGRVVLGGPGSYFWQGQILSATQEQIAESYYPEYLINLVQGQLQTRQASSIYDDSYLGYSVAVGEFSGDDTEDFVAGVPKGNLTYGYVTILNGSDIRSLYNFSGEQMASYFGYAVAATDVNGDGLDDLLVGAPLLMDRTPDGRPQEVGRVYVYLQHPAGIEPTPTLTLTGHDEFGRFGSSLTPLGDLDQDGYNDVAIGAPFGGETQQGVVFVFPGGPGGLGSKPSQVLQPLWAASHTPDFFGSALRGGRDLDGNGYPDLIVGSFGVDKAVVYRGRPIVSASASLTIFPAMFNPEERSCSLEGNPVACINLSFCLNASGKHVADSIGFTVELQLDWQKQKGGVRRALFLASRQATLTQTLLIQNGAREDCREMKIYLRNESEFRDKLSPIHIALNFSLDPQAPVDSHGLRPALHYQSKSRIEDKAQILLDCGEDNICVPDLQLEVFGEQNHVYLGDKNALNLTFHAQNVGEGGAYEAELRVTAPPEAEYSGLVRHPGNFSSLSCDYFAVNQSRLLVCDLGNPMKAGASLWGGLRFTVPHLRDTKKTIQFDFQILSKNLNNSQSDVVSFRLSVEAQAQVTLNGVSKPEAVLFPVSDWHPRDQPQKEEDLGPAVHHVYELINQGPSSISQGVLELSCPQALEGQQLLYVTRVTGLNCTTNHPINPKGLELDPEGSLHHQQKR
# Integrin alpha-5/beta-1, sequence (P08648 895-1049 limits assumed): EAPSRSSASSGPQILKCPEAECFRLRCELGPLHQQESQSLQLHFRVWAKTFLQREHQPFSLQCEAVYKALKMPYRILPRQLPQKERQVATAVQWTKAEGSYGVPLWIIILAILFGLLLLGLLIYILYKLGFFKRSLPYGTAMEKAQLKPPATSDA
# Integrin alpha-V/beta-3, sequence (P05106 27-788 limits assumed): as the sequence (P05106 27-788 limits assumed) above
# Integrin alpha-V/beta-3, sequence (P06756 31-889 limits assumed): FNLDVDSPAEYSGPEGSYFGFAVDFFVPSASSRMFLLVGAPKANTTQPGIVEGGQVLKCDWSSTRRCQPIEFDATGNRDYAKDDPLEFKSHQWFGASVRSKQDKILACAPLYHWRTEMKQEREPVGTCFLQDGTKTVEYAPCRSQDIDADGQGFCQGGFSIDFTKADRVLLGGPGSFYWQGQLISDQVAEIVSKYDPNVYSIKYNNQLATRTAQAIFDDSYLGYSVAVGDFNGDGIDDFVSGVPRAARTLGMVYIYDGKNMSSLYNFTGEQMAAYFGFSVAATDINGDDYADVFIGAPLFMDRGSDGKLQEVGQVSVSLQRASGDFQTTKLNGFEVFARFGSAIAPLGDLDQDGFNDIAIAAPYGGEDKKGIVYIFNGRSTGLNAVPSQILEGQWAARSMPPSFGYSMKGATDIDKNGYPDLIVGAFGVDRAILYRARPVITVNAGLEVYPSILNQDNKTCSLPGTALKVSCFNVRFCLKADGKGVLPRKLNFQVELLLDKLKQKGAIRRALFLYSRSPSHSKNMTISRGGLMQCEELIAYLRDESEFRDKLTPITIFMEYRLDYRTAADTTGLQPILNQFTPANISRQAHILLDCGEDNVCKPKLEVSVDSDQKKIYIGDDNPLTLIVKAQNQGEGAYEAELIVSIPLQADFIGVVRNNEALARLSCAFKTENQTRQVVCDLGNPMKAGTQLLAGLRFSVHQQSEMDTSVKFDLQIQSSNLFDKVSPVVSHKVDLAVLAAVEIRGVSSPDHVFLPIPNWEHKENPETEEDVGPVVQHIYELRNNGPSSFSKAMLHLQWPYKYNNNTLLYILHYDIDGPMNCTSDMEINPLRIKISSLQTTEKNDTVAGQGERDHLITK
# Integrin alpha-V/beta-3, sequence (P06756 891-1048 limits assumed): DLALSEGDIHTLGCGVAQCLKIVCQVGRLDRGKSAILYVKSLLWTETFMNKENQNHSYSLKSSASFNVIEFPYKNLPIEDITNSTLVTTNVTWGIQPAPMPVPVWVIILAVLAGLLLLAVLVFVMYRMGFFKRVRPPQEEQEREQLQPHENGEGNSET
Ratio IC50 (Homo sapiens),IC50 (Integrin alpha-5/beta-1),IC50 (Integrin alpha-V/beta-3),Papp [1],IC50 [2],SMILES
2,,,,,CC(C)C[C@H]1C(=O)NCC(=O)N[C@@H](CCCNC(=N)N)C(=O)NCC(=O)N[C@@H](CC(=O)O)C(=O)N(C)[C@H](Cc2ccccc2)C(=O)N1C
16,> 20000 nM,2730 nM,0.03 ×10⁻⁶ cm/s,165 nM,CC(C)C[C@@H]1NC(=O)[C@@H](Cc2ccccc2)N(C)C(=O)[C@H](CC(=O)O)NC(=O)CNC(=O)[C@H](CCCNC(=N)N)N(C)C(=O)CNC1=O
86,20000 nM,1300 nM,0.03 ×10⁻⁶ cm/s,15 nM,CC(C)C[C@H]1C(=O)NCC(=O)N(C)[C@@H](CCCNC(=N)N)C(=O)NCC(=O)N[C@@H](CC(=O)O)C(=O)N[C@H](Cc2ccccc2)C(=O)N1C
,4300 nM,490 nM,0.03 ×10⁻⁶ cm/s,2000 nM,CC(C)C[C@@H]1NC(=O)[C@@H](Cc2ccccc2)N(C)C(=O)[C@H](CC(=O)O)NC(=O)CNC(=O)[C@H](CCCN=C(N)N)NC(=O)CNC1=O
,> 20000 nM,12200 nM,0.03 ×10⁻⁶ cm/s,30 nM,CC(C)C[C@H]1C(=O)NCC(=O)N(C)[C@@H](CCCN=C(N)N)C(=O)NCC(=O)N[C@@H](CC(=O)O)C(=O)N(C)[C@H](Cc2ccccc2)C(=O)N1C
,,,0.9 ×10⁻⁶ cm/s,,OC[C@@H](O)[C@@H](O)[C@H](O)[C@H](O)CO [MANNITOL]
64,,,,,CC(C)C[C@@H]1NC(=O)[C@@H](Cc2ccccc2)NC(=O)[C@H](CC(=O)O)NC(=O)CNC(=O)[C@H](CCCNC(=N)N)N(C)C(=O)CNC1=O
,> 20000 nM,1200 nM,0.03 ×10⁻⁶ cm/s,620 nM,CC(C)C[C@H]1C(=O)NCC(=O)N[C@@H](CCCN=C(N)N)C(=O)NCC(=O)N[C@@H](CC(=O)O)C(=O)N(C)[C@H](Cc2ccccc2)C(=O)N1C
,1200 nM,770 nM,0.03 ×10⁻⁶ cm/s,12 nM,CC(C)C[C@@H]1NC(=O)[C@@H](Cc2ccccc2)NC(=O)[C@H](CC(=O)O)NC(=O)CNC(=O)[C@H](CCCN=C(N)N)N(C)C(=O)CNC1=O
,3900 nM,103 nM,0.03 ×10⁻⁶ cm/s,560 nM,CC(C)C[C@H]1C(=O)NCC(=O)N[C@@H](CCCN=C(N)N)C(=O)NCC(=O)N[C@@H](CC(=O)O)C(=O)N[C@H](Cc2ccccc2)C(=O)N1C
0.2,,,,,CC(C)C[C@H]1C(=O)NCC(=O)N[C@@H](CCCNC(=N)N)C(=O)NCC(=O)N[C@@H](CC(=O)O)C(=O)N[C@H](Cc2ccccc2)C(=O)N1C
0.2,,,,,CC(C)C[C@@H]1NC(=O)[C@@H](Cc2ccccc2)N(C)C(=O)[C@H](CC(=O)O)NC(=O)CNC(=O)[C@H](CCCNC(=N)N)NC(=O)CNC1=O
406,,,,,CC(C)C[C@H]1C(=O)NCC(=O)N(C)[C@@H](CCCNC(=N)N)C(=O)NCC(=O)N[C@@H](CC(=O)O)C(=O)N(C)[C@H](Cc2ccccc2)C(=O)N1C
0.5,740 nM,100 nM,0.03 ×10⁻⁶ cm/s,195 nM,CC(C)C[C@@H]1NC(=O)[C@@H](Cc2ccccc2)NC(=O)[C@H](CC(=O)O)NC(=O)CNC(=O)[C@H](CCCNC(=N)N)NC(=O)CNC1=O (cyclo(GRGD[dF]L))
